From PubChem BioAssay AID248 (DTP/NCI, 2004)
Inconclusive results and toxic doses are left out.

Test system: L1210 leukemia ip in BDF1 mice, survival T/C
Assay: NCI In Vivo Anticancer Drug Screen. Data for tumor model L1210 Leukemia (intraperitoneal) in B6D2F1 (BDF1) mice
Details: endpoint: mean survival time, higher = longer survival
Procedure, shortened: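 Antitumor effect is assessed in tumor-bearing animals. Survival in the compound arm is compared with a vehicle-dosed control arm and expressed as their quotient.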

[1] = dose: 100.0 mg/kg/injection, schedule: Q04DX003 (ip), vehicle: saline with Tween-80
[2] = dose: 100.0 mg/kg/injection, schedule: Q01DX001 (ip), vehicle: saline
[3] = dose: 200.0 mg/kg/injection, schedule: Q01DX001 (ip), vehicle: saline
[4] = dose: 400.0 mg/kg/injection, schedule: Q01DX001 (ip), vehicle: saline
[5] = dose: 200.0 mg/kg/injection, schedule: Q04DX003 (ip), vehicle: saline with Tween-80
[6] = dose: 400.0 mg/kg/injection, schedule: Q04DX003 (ip), vehicle: saline with Tween-80

Question: With `[Cl][Pt+2][Cl].[NH-]C1CCC1.[NH-]C1CCC1` as the molecule, how does the T/C (dose: 1.0 mg/kg/injection, schedule: Q01DX001 (ip), vehicle: saline with Tween-80) read?
Answer: The T/C was 95 % of control.

Question: And the T/C (dose: 1.0 mg/kg/injection, schedule: Q01DX009 (ip), vehicle: saline with Tween-80)?
Answer: Its T/C is 108 % of control.

Question: What about the T/C (dose: 2.0 mg/kg/injection, schedule: Q01DX001 (ip), vehicle: saline with Tween-80) of the same molecule?
Answer: Its T/C is 98 % of control.

Question: And the T/C (dose: 2.0 mg/kg/injection, schedule: Q01DX009 (ip), vehicle: saline with Tween-80)?
Answer: Its T/C is 115 % of control.

Question: What about the T/C (dose: 4.0 mg/kg/injection, schedule: Q01DX001 (ip), vehicle: saline with Tween-80) of the same molecule?
Answer: Its T/C is 109 % of control.

Question: And the T/C (dose: 5.0 mg/kg/injection, schedule: Q04DX003 (ip), vehicle: saline)?
Answer: The T/C was 110 % of control.

Question: What about the T/C (dose: 6.25 mg/kg/injection, schedule: Q04DX003 (ip), vehicle: Klucel (hydroxypropylcellulose) (HPC)) of the same molecule?
Answer: Its T/C is 103 % of control.

Question: And the T/C (dose: 6.25 mg/kg/injection, schedule: Q04DX003 (ip), vehicle: saline with Tween-80)?
Answer: Its T/C is 116 % of control.

Question: What about the T/C (dose: 8.0 mg/kg/injection, schedule: Q01DX009 (ip), vehicle: saline with Tween-80) of the same molecule?
Answer: The T/C was 157 % of control.

Question: What about the T/C (dose: 10.0 mg/kg/injection, schedule: Q04DX003 (ip), vehicle: saline) of the same molecule?
Answer: The T/C was 123 % of control.

Question: And the T/C (dose: 12.5 mg/kg/injection, schedule: Q04DX003 (ip), vehicle: Klucel (hydroxypropylcellulose) (HPC))?
Answer: Its T/C is 106 % of control.

Question: And the T/C (dose: 16.0 mg/kg/injection, schedule: Q01DX009 (ip), vehicle: saline with Tween-80)?
Answer: Its T/C is 214 % of control.

Question: What about the T/C (dose: 25.0 mg/kg/injection, schedule: Q04DX003 (ip), vehicle: Klucel (hydroxypropylcellulose) (HPC)) of the same molecule?
Answer: The T/C was 110 % of control.

Question: What about the T/C (dose: 32.0 mg/kg/injection, schedule: Q01DX001 (ip), vehicle: saline with Tween-80) of the same molecule?
Answer: Its T/C is 154 % of control.

Question: And the T/C (dose: 32.0 mg/kg/injection, schedule: Q01DX009 (ip), vehicle: saline with Tween-80)?
Answer: Its T/C is 95 % of control.

Question: And the T/C (dose: 40.0 mg/kg/injection, schedule: Q04DX003 (ip), vehicle: saline)?
Answer: The T/C was 152 % of control.

Question: And the T/C (dose: 50.0 mg/kg/injection, schedule: Q04DX003 (ip), vehicle: saline with Tween-80)?
Answer: Its T/C is 195 % of control.

Question: What about the T/C (dose: 64.0 mg/kg/injection, schedule: Q01DX001 (ip), vehicle: saline with Tween-80) of the same molecule?
Answer: The T/C was 118 % of control.

Question: What about the T/C (dose: 80.0 mg/kg/injection, schedule: Q04DX003 (ip), vehicle: saline) of the same molecule?
Answer: The T/C was 110 % of control.

Question: And the T/C [1]?
Answer: The T/C was 154 % of control.

Question: Which results are given for `CC1CCCC/C1=N/O` (centres undefined)?
Answer: T/C [2]: 100 % of control; T/C (dose: 100.0 mg/kg/injection, schedule: Q01DX009 (ip), vehicle: saline): 97 % of control; T/C [3]: 92 % of control; T/C (dose: 200.0 mg/kg/injection, schedule: Q01DX009 (ip), vehicle: saline): 105 % of control; T/C [4]: 91 % of control; T/C (dose: 400.0 mg/kg/injection, schedule: Q01DX009 (ip), vehicle: saline): 97 % of control

Question: Which results are given for `C(=NCCN=Cc1ccccc1)c1ccccc1`?
Answer: T/C [1]: 101 % of control; T/C [5]: 95 % of control; T/C [6]: 111 % of control

Question: Which results are given for `CC(=O)C1(C)C(=O)N(S(=O)(=O)c2ccc(C)cc2)C(=O)N1S(=O)(=O)c1ccc(C)cc1` (centres undefined)?
Answer: T/C [2]: 91 % of control; T/C [3]: 89 % of control; T/C [4]: 100 % of control

Question: What does the source list for `CC(C)(NC(=O)OCc1ccccc1)C(=O)O`?
Answer: T/C [1]: 98 % of control; T/C [5]: 95 % of control; T/C [6]: 101 % of control

Question: How did the T/C (dose: 100.0 mg/kg/injection, schedule: Q04DX002 (ip), vehicle: Klucel (hydroxypropylcellulose) (HPC)) turn out when `O=C(Oc1ccccc1[N+](=O)[O-])c1ccc(Cl)c(Cl)c1` was run?
Answer: The T/C was 90 % of control.

Question: And the T/C (dose: 200.0 mg/kg/injection, schedule: Q04DX002 (ip), vehicle: Klucel (hydroxypropylcellulose) (HPC))?
Answer: The T/C was 97 % of control.

Question: What about the T/C (dose: 400.0 mg/kg/injection, schedule: Q04DX002 (ip), vehicle: Klucel (hydroxypropylcellulose) (HPC)) of the same molecule?
Answer: The T/C was 100 % of control.

Question: How did the T/C (dose: 100.0 mg/kg/injection, schedule: Q01DX009 (ip), vehicle: Klucel (hydroxypropylcellulose) (HPC)) turn out when `Cc1ccc(Cl)cc1NC(=O)c1ccccc1` was run?
Answer: Its T/C is 89 % of control.

Question: What about the T/C (dose: 100.0 mg/kg/injection, schedule: Q04DX003 (ip), vehicle: Klucel (hydroxypropylcellulose) (HPC)) of the same molecule?
Answer: Its T/C is 95 % of control.

Question: What about the T/C (dose: 200.0 mg/kg/injection, schedule: Q01DX009 (ip), vehicle: Klucel (hydroxypropylcellulose) (HPC)) of the same molecule?
Answer: The T/C was 100 % of control.

Question: What about the T/C (dose: 200.0 mg/kg/injection, schedule: Q04DX003 (ip), vehicle: Klucel (hydroxypropylcellulose) (HPC)) of the same molecule?
Answer: The T/C was 106 % of control.

Question: What about the T/C (dose: 400.0 mg/kg/injection, schedule: Q01DX009 (ip), vehicle: Klucel (hydroxypropylcellulose) (HPC)) of the same molecule?
Answer: Its T/C is 94 % of control.

Question: What about the T/C (dose: 400.0 mg/kg/injection, schedule: Q04DX003 (ip), vehicle: Klucel (hydroxypropylcellulose) (HPC)) of the same molecule?
Answer: The T/C was 95 % of control.
